This note sets out measurements from patent publication US8927531B2, “Indanyloxydihydrobenzofuranylacetic acids” (Boehringer Ingelheim International GmbH, priority 2013, dated 2015).

For this assay, the target named is human GPR40 receptor (Homo sapiens, UniProt O14842). Nature of the assay: IP1 accumulation measurements using the IPOne assay system in 1321N1 cells stably expressing human GPR40 receptor. The assay is classed as cell-based. To be noted: stimulation 1 h at 37° C. The procedure:
IP1 accumulation measurements using the IPOne assay system—1321N1 cells stably expressing human GPR40 receptor (Euroscreen, Belgium) are seeded 24 h before the assay in white 384-well plates in culture medium containing 10% FCS, 1% Na-Pyruvate and 400 μg/mL G418. IP1 is assayed according to the manufacturer's description (Cisbio Bioassays, France). In brief, the assay is started by substitution of the culture medium by stimulation buffer (Hepes 10 mM, CaCl2 1 mM, MgCl2 0.5 mM, KCl 4.2 mM, NaCl 146 mM, glucose 5.5 mM and LiCl 50 mM, pH 7.4). Cells are stimulated for 1 h at 37° C., 5% CO2 by addition of the compounds that are diluted in stimulation buffer containing LiCl. Assays are stopped by adding HTRF-conjugates (IP1-d2 and Anti-IP1 cryptate Tb) and lysis buffer, provided by the manufacturer. After an incubation time of 1 h at room temperature plates are measured using an EnVision™, Perkin Elmer. The obtained fluorescence ratios at 665/615 […] are then used to calculate the pEC50 values using Assay Explorer 3.3 Software (Accelrys, Inc.) by interpolation using an IP1 reference curve and subsequent sigmoidal curve fitting allowing for a variable hill slope.

Sequence of human GPR40 receptor (O14842 whole entry): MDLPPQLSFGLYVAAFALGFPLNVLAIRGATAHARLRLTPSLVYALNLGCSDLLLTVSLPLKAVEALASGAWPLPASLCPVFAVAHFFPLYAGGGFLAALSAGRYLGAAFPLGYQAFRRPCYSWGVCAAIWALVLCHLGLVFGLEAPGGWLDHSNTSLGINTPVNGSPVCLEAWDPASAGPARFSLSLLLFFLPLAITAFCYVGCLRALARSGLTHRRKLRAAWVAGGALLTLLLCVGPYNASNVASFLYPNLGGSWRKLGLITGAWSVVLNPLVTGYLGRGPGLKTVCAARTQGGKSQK

`O=C(O)C[C@@H]1COc2cc(O[C@@H]3CCc4c3ccc(C(F)(F)F)c4CN3CCc4ncccc4C3)ccc21` [Example 28, {(S)-6-[(R)-4-(7,8-Dihydro-[1,6]naphthyridin-6-ylmethyl)-5-trifluoromethyl-indan-1-yloxy]-2,3-dihydro-benzofuran-3-yl}-acetic acid] showed an EC50 of 4 nM.

`O=C(O)C[C@@H]1COc2cc(O[C@@H]3CCc4c3ccc(C(F)(F)F)c4CN3CCc4ccccc4C3)ccc21` [Example 29, {(S)-6-[(R)-4-(3,4-Dihydro-isoquinolin-2-ylmethyl)-5-trifluoromethyl-indan-1-yloxy]-2,3-dihydro-benzofuran-3-yl}-acetic acid] yielded an EC50 of 3 nM.

For the compound `O=C(O)C[C@@H]1COc2cc(O[C@@H]3CCc4c3ccc(C(F)(F)F)c4CN3CCc4ncsc4C3)ccc21` [Example 30, {(S)-6-[(R)-4-(6,7-Dihydro-thiazolo[5,4-c]pyridin-5-ylmethyl)-5-trifluoromethyl-indan-1-yloxy]-2,3-dihydro-benzofuran-3-yl}-acetic acid], the response was half-maximal at 3 nM (EC50).

Compound `Cn1cc2c(n1)CCN(Cc1c(C(F)(F)F)ccc3c1CC[C@H]3Oc1ccc3c(c1)OC[C@H]3CC(=O)O)C2` [Example 31, {(S)-6-[(R)-4-(2-Methyl-2,4,6,7-tetrahydro-pyrazolo[4,3-c]pyridin-5-ylmethyl)-5-trifluoromethyl-indan-1-yloxy]-2,3-dihydro-benzofuran-3-yl}-acetic acid] had an EC50 of 2 nM.

`O=C(O)C[C@@H]1COc2cc(O[C@@H]3CCc4c3ccc(C(F)(F)F)c4CN3CCc4ccsc4C3)ccc21` [Example 32, {(S)-6-[(R)-4-(4,7-Dihydro-thieno[2,3-c]pyridin-6-ylmethyl)-5-trifluoromethyl-indan-1-yloxy]-2,3-dihydro-benzofuran-3-yl}-acetic acid] displayed an EC50 of 2 nM.

`O=C(O)C[C@@H]1COc2cc(O[C@@H]3CCc4c3ccc(C(F)(F)F)c4CN3CCn4nccc4C3)ccc21` [Example 33, {(S)-6-[(R)-4-(6,7-Dihydro-pyrazolo[1,5-a]pyrazin-5-ylmethyl)-5-trifluoromethyl-indan-1-yloxy]-2,3-dihydro-benzofuran-3-yl}-acetic acid] came in with a concentration for a half-maximal effect (EC50) of 2 nM.

`O=C(O)C[C@@H]1COc2cc(O[C@@H]3CCc4c3ccc(C(F)(F)F)c4CN3CCc4nocc4C3)ccc21` [Example 34, {(S)-6-[(R)-4-(6,7-Dihydro-isoxazolo[4,3-c]pyridin-5-ylmethyl)-5-trifluoromethyl-indan-1-yloxy]-2,3-dihydro-benzofuran-3-yl}-acetic acid] gave an EC50 of 3 nM.

Turning to `Cc1nc2c(o1)CCN(Cc1c(C(F)(F)F)ccc3c1CC[C@H]3Oc1ccc3c(c1)OC[C@H]3CC(=O)O)C2` [Example 35, {(S)-6-[(R)-4-(2-Methyl-6,7-dihydro-oxazolo[4,5-c]pyridin-5-ylmethyl)-5-trifluoromethyl-indan-1-yloxy]-2,3-dihydro-benzofuran-3-yl}-acetic acid], the response was half-maximal at 3 nM (EC50).
